Experimental data reported in US20170226139A1, “CRYSTALLINE SALTS OF (Z)-O-OCTADEC-9-EN-1-YL O,O-DIHYDROGEN PHOSPHOROTHIOATE” (priority 2013, published 2017).
pEC50: −log10 of the molar value. “Also recorded” adds a separate entry of the source. Like-named read-outs stand apart in the source and are kept apart here.

Columns and labels:
Human LPA2 [1] = molecular target: T1, Human LPA2 (Homo sapiens, UniProt Q9HBW0); test: Competition binding assay, displacement of [3H]LPA from membranes of transfected HEK293 cells; design: expressed in transfected cells; host or cells: HEK293 (crude membrane fraction); settings: 20 nM [3H]LPA; membranes of HEK293 cells transfected with human LPA2
T1 sequence (Q9HBW0 whole entry): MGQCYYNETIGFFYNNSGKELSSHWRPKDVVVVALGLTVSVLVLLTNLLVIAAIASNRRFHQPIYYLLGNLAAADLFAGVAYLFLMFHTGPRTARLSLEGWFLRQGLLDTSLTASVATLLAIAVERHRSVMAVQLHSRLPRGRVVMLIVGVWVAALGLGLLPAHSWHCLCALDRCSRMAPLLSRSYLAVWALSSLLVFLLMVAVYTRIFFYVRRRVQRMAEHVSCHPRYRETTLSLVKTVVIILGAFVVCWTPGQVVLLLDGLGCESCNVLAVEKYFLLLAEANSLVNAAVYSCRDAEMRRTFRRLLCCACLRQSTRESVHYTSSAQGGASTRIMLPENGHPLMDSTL
Method: A further study was performed to evaluate whether Rx100 displaces lysophosphatidic acid bound to its receptor. HEK293 cells were transfected with human LPA2 receptor.

Human LPA2 [2] = molecular target: T1, Human LPA2; test: Calcium-mobilization assay (FURA-2), human LPA2 transfected cells; format: cell-based; design: expressed in transfected cells; host or cells: mouse embryonic fibroblasts (MEF) or rat hepatoma RH7777
Method: (§1) We investigated structure-activity relationships across species, LPAR subtypes and between Rx100 and two known process impurities encountered in manufacture: Rx103 (‘E’ isomer) and Rx200 (oleyl phosphate and impurity, which can be an Rx100 degradant along with oleyl alcohol). Rx100, Rx103, Rx200 and native LPA were investigated at different human LPAR subtypes. In addition, the activity of these compounds was evaluated at LPA2 receptors from the rhesus, rat and mouse species. Human LPA1/2/3 subtypes were transfected into mouse embryonic fibroblasts (MEF) or rat hepatoma cells (RH7777)—both of which are normally non-responsive or null to LPA. Human LPA4 was transfected into Chinese hamster ovary (CHO) cells and LPA5 into the B103 neuroblastoma cell line. […] The B103 rat neuroblastoma cell line is endogenously nonresponsive to LPA but expresses heterologous LPA5 receptors well. […] LPAR activation elicits a G-protein-mediated transient rise in intracellular calcium level that is proportional to the concentration of LPA applied. The intracellular calcium level was quantified by the calcium-selective fluorescent indicator FURA-2 (e.g., increased intracellular calcium surge=increased fluorescence).

Human LPA4 = molecular target: T2, Human LPA4 (Homo sapiens, UniProt Q99677); test: Calcium-mobilization assay (FURA-2), human LPA4 in CHO cells; format: cell-based
T2 construct: expressed in transfected cells; host or cells: CHO
T2 sequence (Q99677 whole entry): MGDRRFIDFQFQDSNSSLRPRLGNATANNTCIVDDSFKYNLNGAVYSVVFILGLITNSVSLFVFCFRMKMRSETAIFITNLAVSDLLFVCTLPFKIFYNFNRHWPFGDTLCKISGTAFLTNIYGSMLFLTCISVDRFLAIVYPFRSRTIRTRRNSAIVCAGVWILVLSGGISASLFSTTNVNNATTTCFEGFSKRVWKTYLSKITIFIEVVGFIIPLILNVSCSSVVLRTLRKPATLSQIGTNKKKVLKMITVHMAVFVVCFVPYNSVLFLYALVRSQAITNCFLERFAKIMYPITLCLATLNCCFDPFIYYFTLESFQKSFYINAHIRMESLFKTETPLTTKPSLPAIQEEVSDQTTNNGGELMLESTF
Method: as §1

[3] = molecular target: T3, LPA2 receptors from the mouse (Mus musculus, UniProt Q9JL06); test: Calcium-mobilization assay (FURA-2), mouse LPA2; format: cell-based
T3 construct: expressed in transfected cells
T3 sequence (Q9JL06 whole entry): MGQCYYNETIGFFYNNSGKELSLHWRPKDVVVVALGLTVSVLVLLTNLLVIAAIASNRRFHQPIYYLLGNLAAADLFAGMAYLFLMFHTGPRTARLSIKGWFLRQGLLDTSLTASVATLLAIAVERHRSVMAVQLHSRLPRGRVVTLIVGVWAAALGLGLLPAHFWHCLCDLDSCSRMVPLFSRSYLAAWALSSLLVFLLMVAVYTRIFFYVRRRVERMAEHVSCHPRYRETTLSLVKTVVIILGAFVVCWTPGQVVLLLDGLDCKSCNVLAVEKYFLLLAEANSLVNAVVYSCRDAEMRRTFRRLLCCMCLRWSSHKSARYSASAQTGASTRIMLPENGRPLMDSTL
Method: as §1

[4] = system: Cultured human peripheral lymphocytes cells; format: cell-based; settings: for Aberrant Cells Mean % −g: excluding gaps only; for Aberrant Cells Mean % +g: plus cells with gaps only
Method: Cultured human peripheral lymphocytes cells were incubated in vitro with Rx100.Lysine for 3 hours with and without S9 mix and for 24 hours without S9 mix. For Rx100.Lysine, concentrations ranging from 3.39 to 500 μg/mL were examined in both treatment conditions. Adjusting for purity, the concentration ranges were 3.06 to 452 μg/mL. […] This increase was just above the historical vehicle control range (0 to 2.0%) for 3 hour treatment without metabolic activation. Thus the response observed is a weak positive and of questionable biological significance cytotoxicity was present just below the acceptable limit of 50±5% for this assay.
Thus, Rx100.Lysine was considered negative for inducing chromosome aberrations, polyploidy and endoreduplication, in cultured human peripheral blood lymphocytes following a 3 hour treatment with and a 24 treatment without metabolic activation.

cynomolgus monkeys = test: Single-dose range-finding and 7-day repeat-dose toxicity in monkeys; format: in vivo
Method: In the first phase of the range-finding monkey study, one male and one female cynomolgus monkeys received single subcutaneous doses of Rx100.Lysine at 0.3, 1, 3, 10, 25 and 75 mg/kg of free acid. The vehicle for all doses was Sterile water for injection with 10 mM L-histidine. In the 7-day repeat-dose phase, two males and females were dosed subcutaneously at 10 mg/kg/day. Parameters evaluated included clinical signs, body weight, food consumption, and clinical and anatomic pathology. […] Animals were subsequently sacrificed. […] No effects on body weights were seen.

[5] = Gravimetric moisture sorption analysis, with XRPD afterwards; format: physicochemical
Method: Moisture sorption analysis of the Rx100.L-Lysine salt was performed by equilibrating the sample at 25° C. and 50% RH to simulate ambient lab conditions. Humidity then decreased to 0% RH, increased from 0 to 95% RH, reduced from 95 to 0% RH, increased from 0 to 95% RH and then decreased from 95 to 50% RH.

[6] = Evaporative crystallization tests, XRPD; format: physicochemical; settings: evaporated to dryness under vacuum at ambient conditions
Method: Third, Evaporative Crystallization tests were performed. Based on the short term slurry experiments, all samples which experienced full dissolution were utilized for evaporative crystallizations. Samples were evaporated to dryness under vacuum at ambient conditions.

[7] = 3-hour treatment with metabolic activation, 84.0 μg/mL
[8] = 3-hour treatment with metabolic activation, 120 μg/mL
[9] = 3-hour treatment with metabolic activation, 172 μg/mL
[10] = 3-hour treatment without metabolic activation, 120 μg/mL
[11] = 3-hour treatment without metabolic activation, 245 μg/mL
[12] = 3-hour treatment without metabolic activation, 350 μg/mL
[13] = 24-hour treatment without metabolic activation, 41.2 μg/mL
[14] = 24-hour treatment without metabolic activation, 84.0 μg/mL
[15] = 24-hour treatment without metabolic activation, 120 μg/mL

CCCCCCCC/C=C\CCCCCCCCOP(O)(O)=S [Rx100, (Z)—O-octadec-9-en-1-yl O,O-dihydrogen phosphorothioate]
displacement of 3H-LPA (Human LPA2 [1]): displaced 3H-LPA in a concentration-dependent manner | pEC50 (Human LPA2 [2]): 6.91 | Emax (Human LPA2 [2]; read-out: Emax (% of LPA)): 100% | pEC50 (Human LPA4): < 5.30 | Emax (Human LPA4; CHO, read-out: Emax (% of LPA)): 97% | pEC50 [3]: 6.78 | Emax ([3]; read-out: Emax (% of LPA)): 100%

CCCCCCCC/C=C\CCCCCCCCOP(O)(O)=S [Rx100.L-Lysine, (Z)—O-octadec-9-en-1-yl O,O-dihydrogen phosphorothioate]
Cytotoxicity (% of Control) [4, 7]: 77 % of Control | Endoreduplicate Mean % [4, 7]: 0.0% | Polyploidy Mean % [4, 7]: 0.0% | Aberrant Cells Mean % −g [4, 7]: 0.0% | Aberrant Cells Mean % +g [4, 7]: 1.5% | Cytotoxicity (% of Control) [4, 8]: 65 % of Control | Endoreduplicate Mean % [4, 8]: 0.0% | Polyploidy Mean % [4, 8]: 0.0% | Aberrant Cells Mean % −g [4, 8]: 0.5% | Aberrant Cells Mean % +g [4, 8]: 2.5% | Cytotoxicity (% of Control) [4, 9]: 68 % of Control | Endoreduplicate Mean % [4, 9]: 0.0% | Polyploidy Mean % [4, 9]: 0.0% | Aberrant Cells Mean % −g [4, 9]: 0.5% | Aberrant Cells Mean % +g [4, 9]: 3.0% | Endoreduplicate Mean % [4, 10]: 0.0% | Polyploidy Mean % [4, 10]: 0.5% | Aberrant Cells Mean % −g [4, 10]: 0.5% | Aberrant Cells Mean % +g [4, 10]: 1.0% | Endoreduplicate Mean % [4, 11]: 0.0% | Polyploidy Mean % [4, 11]: 1.5% | Aberrant Cells Mean % −g [4, 11]: 3.0% | Aberrant Cells Mean % +g [4, 11]: 6.0% | Endoreduplicate Mean % [4, 12]: 0.0% | Polyploidy Mean % [4, 12]: 3.0% | Aberrant Cells Mean % −g [4, 12]: 6.0% | Aberrant Cells Mean % +g [4, 12]: 8.5% | Endoreduplicate Mean % [4, 13]: 0.0% | Polyploidy Mean % [4, 13]: 0.0% | Aberrant Cells Mean % −g [4, 13]: 0.5% | Aberrant Cells Mean % +g [4, 13]: 3.0% | Endoreduplicate Mean % [4, 14]: 0.0% | Polyploidy Mean % [4, 14]: 0.0% | Aberrant Cells Mean % −g [4, 14]: 2.0% | Aberrant Cells Mean % +g [4, 14]: 5.5% | Endoreduplicate Mean % [4, 15]: 0.0% | Polyploidy Mean % [4, 15]: 1.0% | Aberrant Cells Mean % −g [4, 15]: 0.5% | Aberrant Cells Mean % +g [4, 15]: 4.5% | Genotoxic Effects ([4]; 3 hour treatment with S9 and 24 hour treatment without S9): Genotoxic Effects: Negative for inducing chromosome aberrations, polyploidy and endoreduplication following a 3 hour treatment | chromosome aberrations, polyploidy and endoreduplication ([4]; 3 hours with or 24 hours without metabolic activation, listed as Rx100.Lysine): No increase in structural or numerical aberrations, polyploidy or endoreduplication; also recorded: negative | cells with chromosome aberrations ([4]; 3 hours without metabolic activation, increase only at 316 μg/mL, listed as Rx100.Lysine): small but statistically significant increase; also recorded: weakly positive | cytotoxicity ([4]; highest concentration tested, 3-hour exposure): Cytotoxicity was observed | Cytotoxic Effect ([4]; study summary, primary human lymphocytes): Cytotoxic Effect: None | effects on body weights (cynomolgus monkeys; 10 mg/kg/day SC, 7 days): No effects | signs in repeated dose phase (cynomolgus monkeys; 10 mg/kg/day SC, 7 days): intermittent food consumption and adverse effects at the injection sites | clinical signs (cynomolgus monkeys; single SC dose 75 mg/kg): animals became hunched and were obviously in pain | treatment related effects (cynomolgus monkeys; single SC doses up to and including 25 mg/kg): no meaningful treatment related effects | Hygroscopicity [5]: hygroscopic | Residual water content after desorption [5]: < 3% | Water adsorbed in moisture sorption analysis ([5]; at 95% RH, 25° C.): 20.6% | Form by XRPD after moisture sorption analysis ([5]; compared with Pattern A): no change in form | Form by XRPD after evaporative crystallization [6]: no change in form
